pIC50: −log10 of the molar value.
Legend:
KRAS G12C = target: T1, KRAS G12C (Homo sapiens, UniProt P01116, G12C); assay: KRAS G12C NEA-HTRF experiment (SOS1-catalyzed displacement of GDP by GTP); type: biochemical
T1 construct: purchased Reactionbiology
Outline: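 His-tagged KRAS G12C preloaded with DY647-GDP was preincubated 15 min at 20 °C with compound, then exchanged with SOS1 (0.2 μM working solution) and GTP (200 μM working solution) for 2 h at 20 °C in the dark. HTRF 665/615 nm ratio with anti-His-Tb was normalised to T0 and no-compound controls; IC50 by four-parameter fit.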

[1] = tested on: phosphorylated ERK downstream of KRAS G12C in MIA PaCa2 cells; assay: Cell p-ERK detection experiment (HTRF) in MIA PaCa2; type: cell-based, human; conditions: Homo sapiens, MIA PaCa-2, 2 h, MIA PaCa2 cells, 2 hours with compound, Advance ERK phospho-T202/Y204 HTRF kit; read-out: p-ERK IC50
Source text: Raw materials and instruments: MIA PaCa-2 purchased from ATCC; article number: CRL-1420; batch number: 63143594; DMEM purchased from Gibco; article number: 11995-065; batch number: 2186878; FBS purchased from Gibco; article number: 10099-141; batch number: 2109290CP; Horse serum purchased from Gibco; article number: 16050-122; batch number: 1818976; Trypsin-EDTA purchased from Gibco; article number: 25200-072; batch number: 2085552; PS purchased from Gibco; article number: 15140-122; batch number: 2145451; DMSO purchased from VWR AMRESCO; article number: 0231-500ML; batch number: 0457C072; 96-well cell culture plate purchased from Corning; article number: 3599; batch number: 22718601; white opaque 96-well plate purchased from Cisbio; article number: 66PL96025; batch number: N°05; Advance ERK phospho-T202/Y204 kit purchased from Cisbio; article number: 64AERPEH; batch number: 11D; microplate reader purchased from PerkinElmer; model: Envision MLD2105-0020; equipment number 1050369.
MIA PaCa2 was a KRAS G12C mutant human pancreatic cancer cell line cultured in 10% FBS+2.5% Horse serum DMEM culture medium. Cells at logarithmic growth stage were taken, digested with trypsin-EDTA, then collected and counted, and 2.5E4 cells were inoculated in a 96-well cell culture plate and cultured overnight. A 3.16-fold gradient concentration stock solution of 1000× compound was prepared with DMSO, and diluted 200-fold to 5× compound stock solution with culture medium. On the second day after cell inoculation, 5× compound stock solution was added to each cell culture well, with a final concentration of 1× and a DMSO content of 0.1%. DMSO was used as experimental control (control). After the compound was added and cultured for two hours, the residual culture medium was removed. 50 μL of cell lysate (from Advance ERK phospho-T202/Y204 kit, the same below) was added to each well, mixed well and incubated for 30 minutes, and then 16 μL of the mixed solution was transferred to a white opaque 96-well plate, and 16 μL of cell lysate was added to the blank wells. After the transfer was completed, 4 μL of p-ERK HTRF antibody (from Advance ERK phospho-T202/Y204 kit) mixture was added to each well, incubated for 4 hours, and the fluorescence value was read with the microplate reader. The inhibition rate of the compound IR (%)=(RLU control -RLU compound)/(RLU control-RLU blank)×100% was calculated. The gradient dilution concentration of the compound and the corresponding cell proliferation inhibition rate were fitted by Prism 8 four-parameter method, and the IC50 value was calculated. The compounds prepared in the above embodiments of the present disclosure have inhibitory activity of 0.0001 μM to 1 μM on the phosphorylated ERK level downstream of the cell channel of KRAS G12C protein mutant; some compounds have inhibitory activity of 0.001 μM to 1 μM or 0.001 μM to 0.5 μM on phosphorylated ERK level downstream of cell channel of KRAS G12C protein mutant.

T1 sequence (P01116 1-188 isoform P01116-2 G12C): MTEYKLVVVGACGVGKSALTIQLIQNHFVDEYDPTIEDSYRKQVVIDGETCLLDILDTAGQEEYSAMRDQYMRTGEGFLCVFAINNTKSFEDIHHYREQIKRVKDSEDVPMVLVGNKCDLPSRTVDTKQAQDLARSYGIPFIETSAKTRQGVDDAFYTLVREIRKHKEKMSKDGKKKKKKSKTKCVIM

SMILES	pIC50 (KRAS G12C)	pIC50 [1]
C=CC(=O)N1CCN2C(=O)c3c(N4CC[C@@H]5C[C@@H]54)nc(-c4c(O)cccc4F)c(Cl)c3OC[C@H]2C1 (single isomer, unassigned) [Z39-2]	7.18	7.06
C=CC(=O)N1CCN2C(=O)c3c(N4C[C@H](O)[C@H]4C)nc(-c4c(O)cccc4F)c(Cl)c3OC[C@H]2C1 (single isomer, unassigned) [Z102-4]	6.99	6.87
C=CC(=O)N1CCN2C(=O)c3c(N4CCN(C5COC5)C[C@@H]4C)nc(-c4c(O)cccc4F)c(Cl)c3OC[C@H]2C1 (single isomer, unassigned) [Z239-1]	6.91	–
C=CC(=O)N1CCN2C(=O)c3c(N4C[C@](C)(O)CC4(C)C)nc(-c4c(O)cccc4F)c(Cl)c3OC[C@H]2C1 (single isomer, unassigned) [Z243-2]	7.12	6.97
C=CC(=O)N1CCN2C(=O)c3c(N4C[C@@H](OC)CC4(C)C)nc(-c4c(O)cccc4F)c(Cl)c3OC[C@H]2C1 (single isomer, unassigned) [Z244-1]	7.59	7.51
C=CC(=O)N1CCN2C(=O)c3c(N4CCO[C@](C)(CO)C4)nc(-c4c(O)cccc4F)c(Cl)c3OC[C@H]2C1 (single isomer, unassigned) [Z333-1]	6.72	–
C=CC(=O)N1CCN2C(=O)c3c(N4C[C@H](O)CC4(C)C)nc(-c4c(O)ccc(Cl)c4F)c(F)c3OC[C@H]2C1 (single isomer, unassigned) [Z340-2]	7.01	–
C=CC(=O)N1CCN2C(=O)c3c(Nc4c(C(C)C)ncnc4C(C)C)nc(-c4c(O)cccc4F)c(Cl)c3OC[C@H]2C1 [Z15, (6aR)-8-acryloyl-4-chloro-1-((4,6-diisopropylpyrimidin-5-yl)amino)-3-(2-fluoro-6-hydroxyphenyl)-6,6a,7,8,9,10-hexahydro-12H-pyrazino[2,1-c]pyrido[3,4-f][1,4]oxazepin-12-one]	–	7.19
C=CC(=O)N1CCN2C(=O)c3c(N(C)c4c(C(C)C)ncnc4C(C)C)nc(-c4c(O)cccc4F)c(Cl)c3OC[C@H]2C1 [Z20, (6aR)-8-acryloyl-4-chloro-1-((4,6-diisopropylpyrimidin-5-yl)(methyl)amino)-3-(2-fluoro-6-hydroxyphenyl)-6,6a,7,8,9,10-hexahydro-12H-pyrazino[2,1-c]pyrido[3,4-f][1,4]oxazepin-12-one]	–	7.07
C=CC(=O)N1CCN2C(=O)c3c(N4CCC(C)(C)C4)nc(-c4c(O)cccc4F)c(Cl)c3OC[C@H]2C1 [Z21, (6aR)-8-acryloyl-4-chloro-1-(3,3-dimethylpyrrolidin-1-yl)-3-(2-fluoro-6-hydroxyphenyl)-6,6a,7,8,9,10-hexahydro-12H-pyrazino[2,1-c]pyrido[3,4-f][1,4]oxazepin-12-one]	–	6.49

Further lines, results first:

pIC50 (KRAS G12C)	pIC50 [1]	SMILES
7.96	7.72	C=CC(=O)N1CCN2C(=O)c3c(N4C[C@@H](CO)CC4(C)C)nc(-c4c(O)cccc4F)c(Cl)c3OC[C@H]2C1 (single isomer, unassigned) [Z240-1]
7.96	7.70	C=CC(=O)N1CCN2C(=O)c3c(N4C[C@H](CO)CC4(C)C)nc(-c4c(O)cccc4F)c(Cl)c3OC[C@H]2C1 (single isomer, unassigned) [Z240-2]
7.89	7.48	C=CC(=O)N1CCN2C(=O)c3c(N4CC[C@H](OC)C4(C)C)nc(-c4c(O)cccc4F)c(Cl)c3OC[C@H]2C1 (single isomer, unassigned) [Z241a-1]
8.30	8.05	C=CC(=O)N1CCN2C(=O)c3c(N4CC[C@@H](OC)C4(C)C)nc(-c4c(O)cccc4F)c(Cl)c3OC[C@H]2C1 (single isomer, unassigned) [Z241a-2]
8.15	8.10	C=CC(=O)N1CCN2C(=O)c3c(N4C[C@@](C)(O)CC4(C)C)nc(-c4c(O)cccc4F)c(Cl)c3OC[C@H]2C1 (single isomer, unassigned) [Z243-1]
8.30	8.30	C=CC(=O)N1CCN2C(=O)c3c(N4C[C@H](OC)CC4(C)C)nc(-c4c(O)cccc4F)c(Cl)c3OC[C@H]2C1 (single isomer, unassigned) [Z244-2]
